Measured values as given in ChEMBL document CHEMBL1145463, “Clonal spread of mef-positive macrolide-resistant Streptococcus pneumoniae isolates causing invasive disease in adults in Germany” (2007).
≈ marks a conversion by molar mass, not a printed value.

System: Streptococcus pneumoniae
Test: Antibacterial activity against telithromycin-susceptible Streptococcus pneumoniae
Format: functional

- MIC90: 0.12 µg/mL (≈ 0.148 µM)
Compound: CC[C@H]1OC(=O)[C@H](C)C(=O)[C@H](C)[C@@H](O[C@@H]2O[C@H](C)C[C@H](N(C)C)[C@H]2O)[C@](C)(OC)C[C@@H](C)C(=O)[C@H](C)[C@H]2N(CCCCn3cnc(-c4cccnc4)c3)C(=O)O[C@]12C [TELITHROMYCIN]
